Source: ChEMBL document CHEMBL3507680, “University of Dundee, Gates Library screen for HepG2 cell viability”

Experiment: Human HepG2 cell viability assay in 384 well format
Format: toxicity, cell-based
Parameters: dose 125 nL, time 70.5 hour; concentration not given beside the values
Settings: HepG2 cells, read-out: Inhibition

Going from `Cn1cc(CN2CCc3c(nnn3C)C2COCc2ccccc2)cn1` (stereo unspecified) to `Cc1c[nH]nc1C1CN(Cc2cnn(-c3ccccc3C(=O)O)c2)C1`, the cytotoxicity at 70.5 h falls from 32.3% to -6.87%.

First: CN(Cc1cnn(C)c1)C(=O)NC1CCCC1
Second: Cc1nccn1C1CCCN(C(=O)c2cnn(C)c2C2CC2)C1 (stereo unspecified)
The cytotoxicity at 70.5 h of the first is lower: -7.1% for the first, -0.648% for the second.

Going from `CC(C)N(Cc1ccccc1)Cc1csc(-c2ncccn2)n1` to `c1cnc(-c2nc(CN3CCCC(N4CCCC4)C3)cs2)nc1` (stereo unspecified), the cytotoxicity at 70.5 h rises from -10.1% to -3.36%.

First: CS(=O)(=O)NC[C@H]1OC[C@@H](NC2CCC(F)(F)CC2)[C@@H]1O
Second: CC(C)N(C)C[C@H]1OC[C@@H]2CCN(Cc3cccc(C#N)c3)C[C@@H]21
The cytotoxicity at 70.5 h of the first is lower: -5.87% for the first, 14.2% for the second.

Going from `CCn1cc(CN(C)Cc2cnn(-c3ccc(F)cc3)c2)cn1` to `CN(Cc1ccc(F)cc1)C(=O)CN1CCCCC1Cn1cncn1` (stereo unspecified), the cytotoxicity at 70.5 h falls from 13.5% to -3.07%.

Compared with `OC(CN1CCN(CCOCC(F)(F)F)CC1)c1ccccc1` (stereo unspecified), `CN(C)C(C(=O)N1CCN(CCn2cccc2)CC1)c1cccc(F)c1` (stereo unspecified) is lower in cytotoxicity at 70.5 h: 24.5% for the first, 2.13% for the second.

First: Cc1nc(CN2CCCC(NCC(=O)Nc3cccnc3)C2)no1 (stereo unspecified)
Second: Cc1nc(CN2CCN(C(=O)Cc3cccc(Cl)c3)CC2)no1
The cytotoxicity at 70.5 h of the first is lower: -8.83% for the first, -5.05% for the second.

Compared with `Cc1ccn(-c2ccc(NCc3ccccc3F)nn2)n1`, `CN(Cc1coc(-c2ccccc2)n1)C1CCCN(c2cccnn2)C1` (stereo unspecified) is lower in cytotoxicity at 70.5 h: 13.7% for the first, -7.45% for the second.

Compared with `CC(C)NC(=O)NCc1ccc(C(=O)NC(C)Cn2cccn2)cc1` (stereo unspecified), `CCSCCC(=O)Nc1ncn(CC(=O)NCc2ccccc2)n1` is higher in cytotoxicity at 70.5 h: -13.2% for the first, -7.93% for the second.

First: CN(C)C(=O)CN1CCC2(COCc3cnc(-c4ccccc4)nc32)C1 (stereo unspecified)
Second: O=C1NC(c2ccccc2)=N[C@@]12CC[C@@H]1CN(Cc3ccco3)C[C@@H]12
The cytotoxicity at 70.5 h of the first is lower: -6.03% for the first, -5.19% for the second.

First: O=C(Nc1ccccc1)C1CCN(C(=O)COc2ccccc2F)CC1
Second: CN1CCCC(NC(=O)c2ccc(C(=O)c3cc[nH]c3)cc2)C1 (stereo unspecified)
The cytotoxicity at 70.5 h of the first is higher: 7.69% for the first, -16.9% for the second.

Going from `Cc1cccc(Cn2c(=O)[nH]c3csnc3c2=O)c1` to `Cc1cccc2[nH]c(C3CCN(C(=O)c4cnc(O)cc4O)CC3)nc12`, the cytotoxicity at 70.5 h rises from -4.48% to 22.7%.

First: Cc1nnc(C(NS(=O)(=O)c2cc(C)c(F)cc2F)C(C)C)[nH]1 (stereo unspecified)
Second: Cc1cnc(NC(=O)C(C)n2ccc(C(F)(F)F)n2)s1 (stereo unspecified)
The cytotoxicity at 70.5 h of the first is lower: -6.79% for the first, -5.09% for the second.

Going from `COc1nccnc1N1CCN(Cc2ccc(F)cc2)C(=O)C1` to `COc1ccc(CN2CCn3cc(Cn4cccn4)nc3C2)cc1`, the cytotoxicity at 70.5 h falls from 24.6% to 3.13%.

Going from `O=C(c1cnccn1)N1CCc2c(COCC3CC3)cncc2C1` to `Cn1cc(C(=O)NCc2cncc3c2CCN(CC2CC2)C3)cn1`, the cytotoxicity at 70.5 h rises from -7.37% to 17.9%.

First: O=S(=O)(c1cccs1)N1CCCC2(COCCN(c3cccnc3)C2)C1 (stereo unspecified)
Second: O=C1CC2(CCN(Cc3cccnc3)C2)CN1c1cccc(F)c1 (stereo unspecified)
The cytotoxicity at 70.5 h of the first is higher: -1.65% for the first, -16.5% for the second.

Going from `Cc1nc(C)n(CC2CCCCN2CC(=O)Nc2ccncc2)n1` (stereo unspecified) to `CCC(=O)N1CCC(c2nc(C)ncc2-c2ccncc2)CC1`, the cytotoxicity at 70.5 h falls from 16.8% to -7.07%.

First: CCCOc1cccc(-c2nc3c([nH]2)CCNC3)c1
Second: COc1ccc(OCCc2cc(C3CNCCO3)nn2C)cc1 (stereo unspecified)
The cytotoxicity at 70.5 h of the first is lower: 5.31% for the first, 12.2% for the second.

First: COc1cc(CN2CCC(NC(=O)c3cccn3C)C2)cc(OC)c1 (stereo unspecified)
Second: COc1ccccc1N1CC(NC(=O)Cn2cc(C)nn2)CC1=O (stereo unspecified)
The cytotoxicity at 70.5 h of the first is lower: -7.95% for the first, -7.03% for the second.

Compared with `O=C(NCCc1ccccn1)c1[nH]nc2c1CCCC2`, `CCc1nc2c(c(NCc3nc(-c4cccnc4)no3)n1)CCNCC2` is lower in cytotoxicity at 70.5 h: 3.78% for the first, -2.89% for the second.

Compared with `COCC(=O)N1CCC2(CC1)COc1ccccc1S(=O)(=O)N(C)C2`, `O=C(CC1CC1)N1CCC2(CC1)CN(Cc1cccnc1)C(=O)CO2` is lower in cytotoxicity at 70.5 h: 0.748% for the first, -12.2% for the second.

Compared with `CN(Cc1ccc(F)cc1F)CC(C)(CO)CO`, `CC(C)(CNC(=O)COc1cccc(F)c1)C(N)=O` is lower in cytotoxicity at 70.5 h: -5.77% for the first, -9.07% for the second.

First: CC1CC(=O)c2cc(C(=O)N3CCc4ccccc4C3)c(=O)[nH]c2C1 (stereo unspecified)
Second: Cc1nnc(C2Cc3ccccc3CN2Cc2c(C)noc2C)o1 (stereo unspecified)
The cytotoxicity at 70.5 h of the first is lower: -2.25% for the first, -1.11% for the second.

First: Cc1nn(C)c2nc(N3CCN(Cc4nccn4C)CC3)sc12
Second: Cc1n[nH]c(CN2CCN(c3ncnc4scc(C)c34)CC2)c1Cl
The cytotoxicity at 70.5 h of the first is lower: -8.28% for the first, -8.15% for the second.

First: Cc1cn2nc(N3CCCC3Cn3cncn3)sc2n1 (stereo unspecified)
Second: CCCc1nc(CNCC2CCCN2c2cccnn2)no1 (stereo unspecified)
The cytotoxicity at 70.5 h of the first is lower: -3.48% for the first, 22.6% for the second.

Going from `Cc1cc(C)c2c(N3CCC(C(=O)N4CCOCC4)CC3)ncnc2n1` to `Cc1ccc(C#N)c(N2CCC3(CCCN(C4CCOCC4)C3=O)C2)n1` (stereo unspecified), the cytotoxicity at 70.5 h falls from 20.2% to -1.26%.

Compared with `Fc1ccc2c(c1)C(NCc1nnc3n1CCCCC3)CCCO2` (stereo unspecified), `Fc1ccc2c(c1)C1(CCNCC1)CC2OCC1CC1` (stereo unspecified) is lower in cytotoxicity at 70.5 h: 3.88% for the first, -7.69% for the second.

Compared with `CCc1nc(CN(C(C)=O)C2CCN(Cc3ccccc3F)C2)no1` (stereo unspecified), `CCc1nc(CN(C)C(=O)c2cc(CN(CC)CC)c(CC)o2)no1` is lower in cytotoxicity at 70.5 h: -7.96% for the first, -11.7% for the second.

First: CCC(CC)N(C)S(=O)(=O)c1ccc(CCNC(C)=O)s1
Second: CC(C(=O)NCc1ccc(N2CCCCCC2)nc1)S(C)(=O)=O (stereo unspecified)
The cytotoxicity at 70.5 h of the first is higher: 1.4% for the first, -9.13% for the second.

Compared with `N[C@@H]1CCN(Cc2cccc(N3CCOCC3)c2)C[C@H]1O`, `NC(=O)COc1ccc(CN2CC[C@@]3(O)CCCC[C@H]3C2)cc1Cl` is lower in cytotoxicity at 70.5 h: 26.8% for the first, -2.71% for the second.

Going from `CCc1ccc(CN2CCN(CCOC)[C@@H]3CS(=O)(=O)C[C@@H]32)cc1` to `COCCNC(=O)c1ccc2ccc(N3CCN(CC4CC4)CC3)n2c1`, the cytotoxicity at 70.5 h rises from 1.39% to 24.5%.

Going from `CCn1nc(CC(C)C)cc1C(=O)N1CCCC(C#N)C1` (stereo unspecified) to `CCc1nnsc1C(=O)N1CCCC(n2ccnc2C(C)C)C1` (stereo unspecified), the cytotoxicity at 70.5 h falls from 0.732% to -5.12%.

Compared with `CNC(=O)C1(C)CN(Cc2cn(C)c3ccc(F)cc23)CCO1` (stereo unspecified), `CNC(=O)N1CCC2(CC1)CN(C)c1ccc(F)cc12` is higher in cytotoxicity at 70.5 h: -9.03% for the first, 2.16% for the second.

Compared with `COC1COC2(CCN(Cc3ccc4ccccc4n3)CC2)C1` (stereo unspecified), `O[C@H]1CN(CCOc2ccc(F)cc2)CC[C@@]12CCCO2` is higher in cytotoxicity at 70.5 h: -12.9% for the first, -2.62% for the second.

Compared with `CNC(=O)CSC(C)c1ccc(Br)cc1` (stereo unspecified), `CNc1ncc(CN(C)C(=O)c2cccc(-n3cnnc3)c2)cn1` is higher in cytotoxicity at 70.5 h: 2.63% for the first, 11.7% for the second.

Compared with `CCC(C)NC(=O)NCc1cc2n(n1)CCCN(C1CCCCC1)C2` (stereo unspecified), `O=C(CN1CCCC(c2ncc[nH]2)C1)NCCCN1CCCCCC1=O` (stereo unspecified) is lower in cytotoxicity at 70.5 h: 4.95% for the first, -10.5% for the second.

Compared with `CC(C)c1nn(C)c(N(C)C)c1CNC1CCN(C2CC2)CC1`, `COc1cc(CNCc2c(C(C)C)nn(C)c2N(C)C)ccn1` is lower in cytotoxicity at 70.5 h: -2.94% for the first, -5.93% for the second.

Going from `CCn1cc(CN2C[C@H]3CC[C@@H]2CN(C(=O)c2ccncc2)C3)cn1` to `CO[C@@H]1CCN(Cc2c(C)noc2C)[C@@H]2CN(Cc3cccnc3)C[C@@H]21`, the cytotoxicity at 70.5 h falls from 21% to -5.86%.

Compared with `CN(C)C(=O)CS(=O)(=O)Cc1cc(Cl)c2c(c1)OCCCO2`, `Cc1csc(CN(CC2CCCO2)C(=O)c2ccc(C)nc2C)n1` (stereo unspecified) is higher in cytotoxicity at 70.5 h: 6.99% for the first, 15.4% for the second.

Going from `CCN1CCN(C(=O)CCC2CCN(C(C)CSC)CC2)CC1` (stereo unspecified) to `Cc1ccc(N2CC[C@H]3OCC[C@@]3(C(=O)N(C)C)C2)nn1`, the cytotoxicity at 70.5 h falls from 3.5% to -8.34%.

`c1nc2c(c(NC3CCC3)n1)CCNCC2` showed a cytotoxicity at 70.5 h of -2.44%.
